{"source": "patent US10336792B2", "about": "“Antimicrobial peptide dendrimers” (priority 2014, dated 2019)", "type_in_all_cases": "cell-based", "key": {"[1]": {"test_system": "Pseudomonas aeruginosa (strain PA01)", "assay": "microbe, parasite or virus in culture", "conditions": "strain", "procedure,_shortened": "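P. aeruginosa PAO1 grown overnight in LB, diluted to OD600 0.001 and mixed with ⅔-step peptide dilutions, then incubated at 37 °C for 18–24 h. After MTT staining, the lowest concentration with no visible growth was read by eye as the MIC.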"}, "[2]": {"test_system": "Bacillus subtilis (strain BR151)", "conditions": "strain BR151", "procedure,_shortened": "(§1)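 Broth microdilution MIC in LB; overnight cultures diluted to OD600 0.001 and mixed 1:1 with ⅔-serially diluted samples (stock 1 mg mL^−1 in H2O), 37° C for 18-24 h. MTT (0.1%) added; MIC read by eye as lowest concentration inhibiting visible growth (yellow).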"}, "[3]": {"test_system": "Escherichia coli (strain DH5α)", "conditions": "DH5α", "procedure,_shortened": "as §1"}}, "note": "Positions of bridges follow the written chain, without caps; N, C: chain ends. Non-standard residues stand in square brackets, D forms with d. Residues, ends and D or L forms follow the SMILES beside them. Groups on a side chain read outwards from the residue. Chains are numbered I, II in the order given. dDap = NC[C@@H](N)C(=O)O; Dap = NC[C@H](N)C(=O)O", "data": [{"smiles": "CC(C)C[C@H](NC(=O)[C@H](CCCCN)NC(=O)[C@H](CCCCNC(=O)[C@H](CC(C)C)NC(=O)[C@H](CCCCN)NC(=O)[C@H](CCCCNC(=O)[C@H](CC(C)C)NC(=O)[C@H](CCCCN)NC(=O)CSC[C@H](NC(=O)[C@H](CC(C)C)NC(=O)[C@H](CCCCN)NC(=O)[C@H](CCCCNC(=O)[C@H](CC(C)C)NC(=O)[C@@H](N)CCCCN)NC(=O)[C@H](CC(C)C)NC(=O)[C@@H](N)CCCCN)C(N)=O)NC(=O)[C@H](CC(C)C)NC(=O)[C@H](CCCCN)NC(=O)CSC[C@H](NC(=O)[C@H](CC(C)C)NC(=O)[C@H](CCCCN)NC(=O)[C@H](CCCCNC(=O)[C@H](CC(C)C)NC(=O)[C@@H](N)CCCCN)NC(=O)[C@H](CC(C)C)NC(=O)[C@@H](N)CCCCN)C(N)=O)NC(=O)[C@H](CC(C)C)NC(=O)[C@H](CCCCN)NC(=O)[C@H](CCCCNC(=O)[C@H](CC(C)C)NC(=O)[C@H](CCCCN)NC(=O)CSC[C@H](NC(=O)[C@H](CC(C)C)NC(=O)[C@H](CCCCN)NC(=O)[C@H](CCCCNC(=O)[C@H](CC(C)C)NC(=O)[C@@H](N)CCCCN)NC(=O)[C@H](CC(C)C)NC(=O)[C@@H](N)CCCCN)C(N)=O)NC(=O)[C@H](CC(C)C)NC(=O)[C@H](CCCCN)NC(=O)CSC[C@H](NC(=O)[C@H](CC(C)C)NC(=O)[C@H](CCCCN)NC(=O)[C@H](CCCCNC(=O)[C@H](CC(C)C)NC(=O)[C@@H](N)CCCCN)NC(=O)[C@H](CC(C)C)NC(=O)[C@@H](N)CCCCN)C(N)=O)C(N)=O", "note": "[CCS-20, (KL)8(KKLCxKL)4(KKL)2KKL]", "values": [{"measurement": "MIC P. aeruginosa PAO1", "setting": "[1]", "result": 3, "unit": "µg/mL"}, {"measurement": "MIC B. subtilis BR151", "setting": "[2]", "result": 10, "unit": "µg/mL"}, {"measurement": "MIC E. coli DH5α", "setting": "[3]", "result": 4, "unit": "µg/mL"}]}, {"smiles": "CC(C)C[C@H](NC(=O)[C@H](CCCCN)NC(=O)[C@H](CCCCNC(=O)[C@H](CC(C)C)NC(=O)[C@@H](N)CCCCN)NC(=O)[C@H](CC(C)C)NC(=O)[C@@H](N)CCCCN)C(=O)NCCCC[C@H](NC(=O)[C@H](CC(C)C)NC(=O)[C@H](CCCCN)NC(=O)[C@H](CCCCNC(=O)[C@H](CC(C)C)NC(=O)[C@@H](N)CCCCN)NC(=O)[C@H](CC(C)C)NC(=O)[C@@H](N)CCCCN)C(=O)N[C@@H](CCCCN)C(=O)N[C@@H](CC(C)C)C(=O)N[C@@H](CSSC[C@H](NC(=O)[C@H](CC(C)C)NC(=O)[C@H](CCCCN)NC(=O)[C@H](CCCCNC(=O)[C@H](CC(C)C)NC(=O)[C@H](CCCCN)NC(=O)[C@H](CCCCNC(=O)[C@H](CC(C)C)NC(=O)[C@@H](N)CCCCN)NC(=O)[C@H](CC(C)C)NC(=O)[C@@H](N)CCCCN)NC(=O)[C@H](CC(C)C)NC(=O)[C@H](CCCCN)NC(=O)[C@H](CCCCNC(=O)[C@H](CC(C)C)NC(=O)[C@@H](N)CCCCN)NC(=O)[C@H](CC(C)C)NC(=O)[C@@H](N)CCCCN)C(N)=O)C(N)=O", "note": "[CCS-3 dimer, ((KL)4(KKL)2KKLC)2] (I: H-KLK([Leu-Lys])KLKKLC-NH2 / II: H-KLK([Leu-Lys])KLKKLC-NH2 / III: H-KLK([Leu-Lys])KL / IV: H-KLK([Leu-Lys])KL; amide I:6-III:C, II:6-IV:C; disulfide I:9-II:9; N-terminus assumed)", "values": [{"measurement": "MIC P. aeruginosa PAO1", "setting": "[1]", "result": 3, "unit": "µg/mL"}, {"measurement": "MIC B. subtilis BR151", "setting": "[2]", "result": 4, "unit": "µg/mL"}, {"measurement": "MIC E. coli DH5α", "setting": "[3]", "result": 4, "unit": "µg/mL"}]}, {"smiles": "CC(C)C[C@@H](NC(=O)[C@@H](CCCNC(=N)N)NC(=O)[C@@H](CCCCNC(=O)[C@@H](CC(C)C)NC(=O)[C@@H](CCCNC(=N)N)NC(=O)[C@@H](CCCCNC(=O)[C@@H](CC(C)C)NC(=O)[C@@H](CCCNC(=N)N)NC(=O)[C@@H](CCCCNC(=O)[C@@H](CC(C)C)NC(=O)[C@H](N)CCCNC(=N)N)NC(=O)[C@@H](CC(C)C)NC(=O)[C@H](N)CCCNC(=N)N)NC(=O)[C@@H](CC(C)C)NC(=O)[C@@H](CCCNC(=N)N)NC(=O)[C@@H](CCCCNC(=O)[C@@H](CC(C)C)NC(=O)[C@H](N)CCCNC(=N)N)NC(=O)[C@@H](CC(C)C)NC(=O)[C@H](N)CCCNC(=N)N)NC(=O)[C@@H](CC(C)C)NC(=O)[C@@H](CCCNC(=N)N)NC(=O)[C@@H](CCCCNC(=O)[C@@H](CC(C)C)NC(=O)[C@@H](CCCNC(=N)N)NC(=O)[C@@H](CCCCNC(=O)[C@@H](CC(C)C)NC(=O)[C@H](N)CCCNC(=N)N)NC(=O)[C@@H](CC(C)C)NC(=O)[C@H](N)CCCNC(=N)N)NC(=O)[C@@H](CC(C)C)NC(=O)[C@@H](CCCNC(=N)N)NC(=O)[C@@H](CCCCNC(=O)[C@@H](CC(C)C)NC(=O)[C@H](N)CCCNC(=N)N)NC(=O)[C@@H](CC(C)C)NC(=O)[C@H](N)CCCNC(=N)N)C(N)=O", "note": "[MSt-155, (rl)8(krl)4(krl)2(krl)] (I: H-[dR][dL][dK]([dL-dR])[dR][dL][dK][dR][dL][dK][dR][dL]-NH2 / II: H-[dR][dL][dK]([dL-dR])[dR][dL][dK][dR][dL] / III: H-[dR][dL][dK]([dL-dR])[dR][dL] / IV: H-[dR][dL][dK]([dL-dR])[dR][dL]; amide I:6-IV:C, I:9-II:C, II:6-III:C)", "values": [{"measurement": "MIC P. aeruginosa PAO1", "setting": "[1]", "result": 11, "unit": "µg/mL"}, {"measurement": "MIC B. subtilis BR151", "setting": "[2]", "result": 6, "unit": "µg/mL"}, {"measurement": "MIC E. coli DH5α", "setting": "[3]", "result": 4, "unit": "µg/mL"}]}, {"smiles": "CC(C)C[C@@H](NC(=O)[C@@H](CCCNC(=N)N)NC(=O)[C@@H](CNC(=O)[C@@H](CC(C)C)NC(=O)[C@@H](CCCNC(=N)N)NC(=O)[C@@H](CNC(=O)[C@@H](CC(C)C)NC(=O)[C@@H](CCCNC(=N)N)NC(=O)[C@@H](CNC(=O)[C@@H](CC(C)C)NC(=O)[C@H](N)CCCNC(=N)N)NC(=O)[C@@H](CC(C)C)NC(=O)[C@H](N)CCCNC(=N)N)NC(=O)[C@@H](CC(C)C)NC(=O)[C@@H](CCCNC(=N)N)NC(=O)[C@@H](CNC(=O)[C@@H](CC(C)C)NC(=O)[C@H](N)CCCNC(=N)N)NC(=O)[C@@H](CC(C)C)NC(=O)[C@H](N)CCCNC(=N)N)NC(=O)[C@@H](CC(C)C)NC(=O)[C@@H](CCCNC(=N)N)NC(=O)[C@@H](CNC(=O)[C@@H](CC(C)C)NC(=O)[C@@H](CCCNC(=N)N)NC(=O)[C@@H](CNC(=O)[C@@H](CC(C)C)NC(=O)[C@H](N)CCCNC(=N)N)NC(=O)[C@@H](CC(C)C)NC(=O)[C@H](N)CCCNC(=N)N)NC(=O)[C@@H](CC(C)C)NC(=O)[C@@H](CCCNC(=N)N)NC(=O)[C@@H](CNC(=O)[C@@H](CC(C)C)NC(=O)[C@H](N)CCCNC(=N)N)NC(=O)[C@@H](CC(C)C)NC(=O)[C@H](N)CCCNC(=N)N)C(N)=O", "note": "[MSt-156, (rl)8(brl)4(brl)2(brl)] (I: H-[dR][dL][dDap]([dL-dR])[dR][dL][dDap][dR][dL][dDap][dR][dL]-NH2 / II: H-[dR][dL][dDap]([dL-dR])[dR][dL][dDap][dR][dL] / III: H-[dR][dL][dDap]([dL-dR])[dR][dL] / IV: H-[dR][dL][dDap]([dL-dR])[dR][dL]; amide I:6-IV:C, I:9-II:C, II:6-III:C)", "values": [{"measurement": "MIC P. aeruginosa PAO1", "setting": "[1]", "result": 10, "unit": "µg/mL"}, {"measurement": "MIC B. subtilis BR151", "setting": "[2]", "result": 7, "unit": "µg/mL"}, {"measurement": "MIC E. coli DH5α", "setting": "[3]", "result": 4, "unit": "µg/mL"}]}, {"smiles": "CC(C)C[C@H](NC(=O)[C@H](CCCNC(=N)N)NC(=O)[C@H](CNC(=O)[C@H](CC(C)C)NC(=O)[C@H](CCCNC(=N)N)NC(=O)[C@H](CNC(=O)[C@H](CC(C)C)NC(=O)[C@@H](N)CCCNC(=N)N)NC(=O)[C@H](CC(C)C)NC(=O)[C@@H](N)CCCNC(=N)N)NC(=O)[C@H](CC(C)C)NC(=O)[C@H](CCCNC(=N)N)NC(=O)[C@H](CNC(=O)[C@H](CC(C)C)NC(=O)[C@@H](N)CCCNC(=N)N)NC(=O)[C@H](CC(C)C)NC(=O)[C@@H](N)CCCNC(=N)N)C(N)=O", "note": "[MSt-139, (RL)4(BRL)2(BRL)] (I: H-RL[Dap]([Leu-Arg])RL[Dap]RL-NH2 / II: H-RL[Dap]([Leu-Arg])RL; amide I:6-II:C)", "values": [{"measurement": "MIC P. aeruginosa PAO1", "setting": "[1]", "result": 2, "unit": "µg/mL"}, {"measurement": "MIC B. subtilis BR151", "setting": "[2]", "result": 16, "unit": "µg/mL"}, {"measurement": "MIC E. coli DH5α", "setting": "[3]", "result": 17, "unit": "µg/mL"}]}]}
